Results on eight molecules are retold here after patent US20160158317A1, “Antimicrobial Peptide Variants and Polynucleotides Encoding Same” (Adenium Biotech A/S, priority 2010, published 2016).

The nature of the data set: Determination of the protein binding (90% serum, 30 kDa filter, HPLC). The note with it: serum. The class given is in vitro ADME. As for the experimental part: Protein binding assays were performed as follows. The purified peptides were mixed with 90% serum and centrifuged through a 30 kDa filter. The ultra-filtrate and the non filtrated serum samples were quantified by HPLC measurements and the protein binding was subsequently calculated.

What is called fraction unbound is free concentration divided by total concentration. Read a low fraction unbound as little free substance.

Where a SMILES comes first, the peptide text is derived from it. Bridges are numbered along the chain shown (N, C = ends).

In turn, `CC(C)[C@@H]1NC(=O)CNC(=O)[C@H](CC(N)=O)NC(=O)[C@H](CCCNC(=N)N)NC(=O)[C@H](Cc2ccc(O)cc2)NC(=O)[C@H](C(C)C)NC(=O)[C@@H]2CSSC[C@H](NC(=O)[C@H](C(C)C)NC(=O)[C@H](CCCNC(=N)N)NC1=O)C(=O)N[C@@H](Cc1c[nH]cn1)C(=O)N[C@@H](CCCNC(=N)N)C(=O)N[C@@H](CCCNC(=N)N)C(=O)N[C@H](C(=O)N[C@@H](Cc1c[nH]c3ccccc13)C(=O)O)CSSC[C@H](NC(=O)[C@H](Cc1ccccc1)NC(=O)CN)C(=O)N[C@@H](Cc1c[nH]c3ccccc13)C(=O)N[C@@H](CC(N)=O)C(=O)N[C@@H](C(C)C)C(=O)N2` [compound 291] (H-GFCWNVCVYRNGVRVCHRRCW-OH; disulfide 3-20, 7-16 (inferred); N-terminus and C-terminus assumed) returned a fraction unbound of 0.01.

Take `CC(C)[C@@H]1NC(=O)CNC(=O)[C@H](CC(N)=O)NC(=O)[C@H](CCCNC(=N)N)NC(=O)[C@H](CCCNC(=N)N)NC(=O)[C@H](C(C)C)NC(=O)[C@@H]2CSSC[C@H](NC(=O)[C@H](C(C)C)NC(=O)[C@H](CCCNC(=N)N)NC1=O)C(=O)N[C@@H](Cc1c[nH]cn1)C(=O)N[C@@H](CCCNC(=N)N)C(=O)N[C@@H](CCCNC(=N)N)C(=O)N[C@H](C(=O)N[C@@H](CC(N)=O)C(=O)O)CSSC[C@H](NC(=O)[C@H](Cc1ccccc1)NC(=O)CN)C(=O)N[C@@H](Cc1c[nH]c3ccccc13)C(=O)N[C@@H](CC(N)=O)C(=O)N[C@@H](C(C)C)C(=O)N2` [compound 308] (H-GFCWNVCVRRNGVRVCHRRCN-OH; disulfide 3-20, 7-16 (inferred); N-terminus and C-terminus assumed): the fraction unbound was 0.06.

`CC(C)[C@@H]1NC(=O)CNC(=O)[C@H](CC(N)=O)NC(=O)[C@H](CCCNC(=N)N)NC(=O)[C@H](Cc2ccc(O)cc2)NC(=O)[C@H](C(C)C)NC(=O)[C@@H]2CSSC[C@H](NC(=O)[C@H](C(C)C)NC(=O)[C@H](CCCNC(=N)N)NC1=O)C(=O)N[C@@H](Cc1c[nH]cn1)C(=O)N[C@@H](CCCNC(=N)N)C(=O)N[C@@H](CCCNC(=N)N)C(=O)N[C@H](C(=O)N[C@@H](CCCCN)C(=O)O)CSSC[C@H](NC(=O)[C@H](Cc1ccccc1)NC(=O)CN)C(=O)N[C@@H](Cc1c[nH]c3ccccc13)C(=O)N[C@@H](CC(N)=O)C(=O)N[C@@H](C(C)C)C(=O)N2` [compound 284] (H-GFCWNVCVYRNGVRVCHRRCK-OH; disulfide 3-20, 7-16 (inferred); N-terminus and C-terminus assumed): the fraction unbound was 0.28.

In the case of `CC(C)[C@@H]1NC(=O)CNC(=O)[C@H](CC(N)=O)NC(=O)[C@H](CCCNC(=N)N)NC(=O)[C@H](Cc2ccc(O)cc2)NC(=O)[C@H](C(C)C)NC(=O)[C@@H]2CSSC[C@H](NC(=O)[C@H](C(C)C)NC(=O)[C@H](CCCNC(=N)N)NC1=O)C(=O)N[C@@H](CC(N)=O)C(=O)N[C@@H](CCCNC(=N)N)C(=O)N[C@@H](CCCNC(=N)N)C(=O)N[C@H](C(=O)N[C@@H](CC(N)=O)C(=O)O)CSSC[C@H](NC(=O)[C@H](Cc1ccccc1)NC(=O)CN)C(=O)N[C@@H](Cc1c[nH]c3ccccc13)C(=O)N[C@@H](Cc1ccc(O)cc1)C(=O)N[C@@H](C(C)C)C(=O)N2` [compound 48] (H-GFCWYVCVYRNGVRVCNRRCN-OH; disulfide 3-20, 7-16 (inferred); N-terminus and C-terminus assumed), the fraction unbound is 0.32.

Turning to `CC(C)[C@@H]1NC(=O)CNC(=O)[C@H](CC(N)=O)NC(=O)[C@H](CCCNC(=N)N)NC(=O)[C@H](CCCCN)NC(=O)[C@H](C(C)C)NC(=O)[C@@H]2CSSC[C@H](NC(=O)[C@H](C(C)C)NC(=O)[C@H](CCCNC(=N)N)NC1=O)C(=O)N[C@@H](Cc1ccc(O)cc1)C(=O)N[C@@H](CCCNC(=N)N)C(=O)N[C@@H](CCCNC(=N)N)C(=O)N[C@H](C(=O)N[C@@H](CC(N)=O)C(=O)O)CSSC[C@H](NC(=O)[C@H](Cc1ccccc1)NC(=O)CN)C(=O)N[C@@H](Cc1c[nH]c3ccccc13)C(=O)N[C@@H](CC(N)=O)C(=O)N[C@@H](C)C(=O)N2` [compound 258] (H-GFCWNACVKRNGVRVCYRRCN-OH; disulfide 3-20, 7-16 (inferred); N-terminus and C-terminus assumed), the fraction unbound was 0.11.

In turn, `CC(C)[C@@H]1NC(=O)[C@@H]2CSSC[C@H](NC(=O)[C@H](C(C)C)NC(=O)[C@H](CCCNC(=N)N)NC(=O)[C@H](C(C)C)NC(=O)[C@H](CCCNC(=N)N)NC(=O)[C@H](CC(N)=O)NC(=O)[C@H](CCCNC(=N)N)NC(=O)[C@H](Cc3ccc(O)cc3)NC1=O)C(=O)N[C@@H](Cc1c[nH]cn1)C(=O)N[C@@H](CCCNC(=N)N)C(=O)N[C@@H](CCCNC(=N)N)C(=O)N[C@H](C(=O)N[C@@H](CC(N)=O)C(=O)O)CSSC[C@H](NC(=O)[C@H](Cc1ccccc1)NC(=O)CN)C(=O)N[C@@H](Cc1c[nH]c3ccccc13)C(=O)N[C@@H](CC(N)=O)C(=O)N[C@@H](C(C)C)C(=O)N2` [compound 228] (H-GFCWNVCVYRNRVRVCHRRCN-OH; disulfide 3-20, 7-16 (inferred); N-terminus and C-terminus assumed) showed a fraction unbound of 0.14.

`CC(C)[C@@H]1NC(=O)[C@H](CCCNC(=N)N)NC(=O)[C@H](CCCCN)NC(=O)CNC(=O)[C@H](CC(N)=O)NC(=O)[C@H](CO)NC(=O)[C@H](Cc2ccc(O)cc2)NC(=O)[C@H](Cc2c[nH]cn2)NC(=O)[C@@H]2CSSC[C@H](NC1=O)C(=O)N[C@@H](Cc1ccc(O)cc1)C(=O)N[C@@H](CCCNC(=N)N)C(=O)N[C@@H](CCCNC(=N)N)C(=O)N[C@H](C(=O)N[C@@H](CC(N)=O)C(=O)O)CSSC[C@H](NC(=O)[C@H](Cc1ccccc1)NC(=O)CN)C(=O)N[C@@H](Cc1c[nH]c3ccccc13)C(=O)N[C@@H](CCCNC(=N)N)C(=O)N[C@@H](C(C)C)C(=O)N2` [compound 439] (H-GFCWRVCHYSNGKRVCYRRCN-OH; disulfide 3-20, 7-16 (inferred); N-terminus and C-terminus assumed) had a fraction unbound of 0.08.

Turning to `CC(C)[C@@H]1NC(=O)CNC(=O)[C@H](CC(N)=O)NC(=O)[C@H](CCCNC(=N)N)NC(=O)[C@H](Cc2ccc(O)cc2)NC(=O)[C@H](Cc2c[nH]cn2)NC(=O)[C@@H]2CSSC[C@H](NC(=O)[C@H](C(C)C)NC(=O)[C@H](CCCNC(=N)N)NC1=O)C(=O)N[C@@H](Cc1ccc(O)cc1)C(=O)N[C@@H](CCCNC(=N)N)C(=O)N[C@@H](CCCNC(=N)N)C(=O)N[C@H](C(=O)N[C@@H](CC(N)=O)C(=O)O)CSSC[C@H](NC(=O)[C@H](Cc1ccccc1)NC(=O)CN)C(=O)N[C@@H](Cc1c[nH]c3ccccc13)C(=O)N[C@@H](CCCNC(=N)N)C(=O)N[C@@H](C(C)C)C(=O)N2` [compound 74] (H-GFCWRVCHYRNGVRVCYRRCN-OH; disulfide 3-20, 7-16 (inferred); N-terminus and C-terminus assumed), the fraction unbound was 0.01.
